The record followed here is US20080234262A1 (Wyeth, priority 2007, published 2008).

The subject of experiment [1] is breast line MDA468. The experiment in a line: In vitro cell culture growth assay (MTS), MDA468. The experiment is classed as cell-based, human. Conditions: MDA468 cells, three days after drug treatment. The essentials:
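MDA468 or LNCap cells received inhibitors one day after plating and were grown for three days. Viable cell density read by MTS conversion, absorbance 490 nm, expressed as percent of control growth versus vehicle-treated cells on the same plate.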

Experiment [2] has as its target PI3K (Homo sapiens, UniProt P42336). The experiment in a line: Fluorescence polarization assay for PI3K.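 Also: PI3K kinase reaction on PIP2 with ATP, 30-60 min, product sensed by GST-GRP with red probe in fluorescence polarization (mP), controls without enzyme and at zero time.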 The format is biochemical. Conditions: PI3Kα; read-out: PI3Kα IC50.
Experiment [3] relates to prostate line LNCap. The experiment is described as follows: In vitro cell culture growth assay (MTS), LNCap. Conditions: LNCap cells, three days after drug treatment. The format is cell-based, human.

pIC50: −log10 of the molar value. Some results are limits rather than exact numbers.

Chain of PI3K (P42336 whole entry): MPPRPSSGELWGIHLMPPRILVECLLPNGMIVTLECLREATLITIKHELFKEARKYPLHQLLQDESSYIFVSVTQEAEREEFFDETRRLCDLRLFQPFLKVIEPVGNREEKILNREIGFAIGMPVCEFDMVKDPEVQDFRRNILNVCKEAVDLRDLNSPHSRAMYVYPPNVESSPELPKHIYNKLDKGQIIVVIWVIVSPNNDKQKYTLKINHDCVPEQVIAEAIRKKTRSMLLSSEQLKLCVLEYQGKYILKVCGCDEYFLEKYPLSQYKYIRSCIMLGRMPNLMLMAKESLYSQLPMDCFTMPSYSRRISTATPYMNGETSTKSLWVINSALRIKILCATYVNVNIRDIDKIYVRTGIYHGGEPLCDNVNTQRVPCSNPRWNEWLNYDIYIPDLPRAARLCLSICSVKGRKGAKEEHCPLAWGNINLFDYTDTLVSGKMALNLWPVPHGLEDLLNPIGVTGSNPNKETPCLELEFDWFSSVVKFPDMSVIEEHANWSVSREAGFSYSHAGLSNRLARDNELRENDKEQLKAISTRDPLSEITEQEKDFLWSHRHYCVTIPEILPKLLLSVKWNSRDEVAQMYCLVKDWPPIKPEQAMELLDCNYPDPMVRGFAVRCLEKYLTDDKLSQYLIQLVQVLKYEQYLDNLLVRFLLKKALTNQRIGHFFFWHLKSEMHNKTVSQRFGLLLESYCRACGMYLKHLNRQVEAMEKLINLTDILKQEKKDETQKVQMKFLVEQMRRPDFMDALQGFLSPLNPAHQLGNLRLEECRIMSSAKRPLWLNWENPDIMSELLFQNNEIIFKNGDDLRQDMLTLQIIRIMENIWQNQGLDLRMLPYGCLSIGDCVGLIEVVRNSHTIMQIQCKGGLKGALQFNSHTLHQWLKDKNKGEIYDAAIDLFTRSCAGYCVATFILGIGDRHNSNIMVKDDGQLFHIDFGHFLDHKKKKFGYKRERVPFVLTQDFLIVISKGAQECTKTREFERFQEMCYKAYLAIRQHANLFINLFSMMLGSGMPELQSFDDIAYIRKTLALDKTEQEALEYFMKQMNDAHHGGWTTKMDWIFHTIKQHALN
Chain of PI3K (P27986 whole entry partner): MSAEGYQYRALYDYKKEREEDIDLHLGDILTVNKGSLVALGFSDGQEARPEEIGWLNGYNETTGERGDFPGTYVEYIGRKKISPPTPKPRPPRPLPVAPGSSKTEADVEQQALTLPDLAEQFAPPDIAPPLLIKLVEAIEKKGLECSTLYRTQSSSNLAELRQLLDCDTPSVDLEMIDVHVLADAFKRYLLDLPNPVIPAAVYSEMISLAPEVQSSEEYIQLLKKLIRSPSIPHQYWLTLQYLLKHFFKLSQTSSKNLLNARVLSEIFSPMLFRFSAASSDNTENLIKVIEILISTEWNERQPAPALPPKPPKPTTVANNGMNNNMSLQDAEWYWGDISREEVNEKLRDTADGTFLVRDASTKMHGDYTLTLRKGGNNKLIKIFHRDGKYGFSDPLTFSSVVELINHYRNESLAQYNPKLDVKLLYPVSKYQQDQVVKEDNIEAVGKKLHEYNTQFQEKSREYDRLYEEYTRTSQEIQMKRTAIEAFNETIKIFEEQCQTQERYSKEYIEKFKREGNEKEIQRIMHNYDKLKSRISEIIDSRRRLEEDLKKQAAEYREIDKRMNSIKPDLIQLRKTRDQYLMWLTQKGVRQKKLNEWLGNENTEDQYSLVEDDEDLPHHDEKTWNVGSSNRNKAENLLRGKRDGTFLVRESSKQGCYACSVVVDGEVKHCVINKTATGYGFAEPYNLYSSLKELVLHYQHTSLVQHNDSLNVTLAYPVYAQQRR

On to `O=C(NCCO)Nc1ccc(-c2nc(N3CCOCC3)c3cnn(C4CCN(Cc5cccnc5)CC4)c3n2)cc1` [Example 316, 1-(2-hydroxyethyl)-3-(4-{4-morpholin-4-yl-1-[1-(pyridin-3-ylmethyl)piperidin-4-yl]-1H-pyrazolo[3,4-d]pyrimidin-6-yl}phenyl)urea], for which the pIC50 in experiment [1] (Homo sapiens, 72 h) was 6.22; in experiment [2], 6.79; in experiment [3] (Homo sapiens, LNCaP, 72 h) it was 6.30.
Consider `CN(C)CC(=O)Nc1ccc(-c2nc(N3CCOCC3)c3cnn(C4CCCCO4)c3n2)cc1` (stereo not drawn) [Compound 275], for which the pIC50 is 4.40 in experiment [1] (Homo sapiens, 72 h); 5.05 in experiment [2]; 4.92 in experiment [3] (Homo sapiens, LNCaP, 72 h).
As for `O=C(Nc1ccccc1)Nc1ccc(-c2nc(N3CCOCC3)c3cnn(C4CCN(Cc5cccnc5)CC4)c3n2)cc1F` [Compound 598, 1-(2-fluoro-4-{4-morpholin-4-yl-1-[1-(pyridin-3-ylmethyl)piperidin-4-yl]-1H-pyrazolo[3,4-d]pyrimidin-6-yl}phenyl)-3-phenylurea], the pIC50 was 6.44 in experiment [1] (Homo sapiens, 72 h); 7.39 in experiment [2]; 7.15 in experiment [3] (Homo sapiens, LNCaP, 72 h).
Regarding `CNC(=O)Nc1ccc(-c2nc(N3CCOCC3)c3cnn([C@@H]4CCCNC4)c3n2)cc1` [Compound 875, 1-methyl-3-(4-{4-morpholin-4-yl-1-[(3R)-piperidin-3-yl]-1H-pyrazolo[3,4-d]pyrimidin-6-yl}phenyl)urea], the negative logarithm of the IC50 (pIC50) was 5.90 in experiment [1] (Homo sapiens, 72 h); 7.34 in experiment [2]; 5.96 in experiment [3] (Homo sapiens, LNCaP, 72 h).
As to `c1ccc(CN2CCC(n3ncc4c(N5CCOCC5)nc(-c5cccc6[nH]ccc56)nc43)CC2)cc1` [Example 59], the pIC50 was 5.59 in experiment [1] (Homo sapiens, 72 h); 6.62 in experiment [2]; 6.30 in experiment [3] (Homo sapiens, LNCaP, 72 h).
For `COC(=O)N1CCC(n2ncc3c(N4CCOCC4)nc(-c4ccc(NC(=O)Nc5ccc(F)nc5)cc4)nc32)CC1` [Compound 862, methyl 4-[6-(4-{[(6-fluoropyridin-3-yl)carbamoyl]amino}phenyl)-4-morpholin-4-yl-1H-pyrazolo[3,4-d]pyrimidin-1-yl]piperidine-1-carboxylate], the pIC50 was greater than 7.05 in experiment [1] (Homo sapiens, 72 h); 6.97 in experiment [2]; greater than 7.64 in experiment [3] (Homo sapiens, LNCaP, 72 h).
The matching figures for `CNC(=O)Nc1ccc(-c2nc(N3CCOCC3)c3cnn(C4CCN(C(=O)c5ccc(Br)cc5)CC4)c3n2)cc1` [Compound 606, 1-(4-{1-[1-(4-bromobenzoyl)piperidin-4-yl]-4-morpholin-4-yl-1H-pyrazolo[3,4-d]pyrimidin-6-yl}phenyl)-3-methylurea]: 6.74, 7.47 and 7.28.
The matching figures for `CCCCNC(=O)Nc1ccc(-c2nc(N3CCOCC3)c3cnn(C4CCN(C(=O)c5cccnc5)CC4)c3n2)cc1` [Example 216, 1-butyl-3-(4-{4-morpholin-4-yl-1-[1-(pyridin-3-ylcarbonyl)piperidin-4-yl]-1H-pyrazolo[3,4-d]pyrimidin-6-yl}phenyl)urea]: 5.82, 6.35 and 6.40.
Consider `O=C(Nc1ccccc1)Nc1ccc(-c2nc(N3CCOCC3)c3cnn(C4CCNCC4)c3n2)cc1` [Compound 777, 1-[4-(4-morpholin-4-yl-1-piperidin-4-yl-1H-pyrazolo[3,4-d]pyrimidin-6-yl)phenyl]-3-phenylurea], for which the pIC50 in experiment [1] (Homo sapiens, 72 h) is 6.85; in experiment [2] it was 7.72; in experiment [3] (Homo sapiens, LNCaP, 72 h) it was 6.89.
Turning to `C=COC(=O)N1CCC(n2ncc3c(N4CCOCC4)nc(-c4ccc(NC(=O)NC)cc4)nc32)CC1` [Compound 753, vinyl 4-(6-{4-[(methylcarbamoyl)amino]phenyl}-4-morpholin-4-yl-1H-pyrazolo[3,4-d]pyrimidin-1-yl)piperidine-1-carboxylate], the pIC50 in experiment [1] (Homo sapiens, 72 h) is 6.96; in experiment [2], 7.00; in experiment [3] (Homo sapiens, LNCaP, 72 h), 7.33.
The matching figures for `COC(=O)N1CCC(n2ncc3c(N4CCOCC4)nc(-c4ccc(NC(=O)OCCCO)cc4)nc32)CC1` [Compound 909, methyl 4-[6-(4-{[(3-hydroxypropoxy)carbonyl]amino}phenyl)-4-morpholin-4-yl-1H-pyrazolo[3,4-d]pyrimidin-1-yl]piperidine-1-carboxylate]: less than 4.22, 5.15 and 5.92.
With `O=C(NO)Nc1ccc(-c2nc(N3CCOCC3)c3cnn(C4CCN(Cc5cccnc5)CC4)c3n2)cc1` [Compound 562, 1-hydroxy-3-(4-{4-morpholin-4-yl-1-[1-(pyridin-3-ylmethyl)piperidin-4-yl]-1H-pyrazolo[3,4-d]pyrimidin-6-yl}phenyl)urea], the pIC50 in experiment [1] (Homo sapiens, 72 h) is 5.82; in experiment [2], 6.59; in experiment [3] (Homo sapiens, LNCaP, 72 h), 5.96.
As to `Oc1cccc(-c2nc(N3CCOCC3)c3cnn(C4CCCCC4)c3n2)c1` [Example 91, 3-(1-cyclohexyl-4-morpholin-4-yl-1H-pyrazolo[3,4-d]pyrimidin-6-yl)phenol], the pIC50 is 5.60 in experiment [1] (Homo sapiens, 72 h); 7.46 in experiment [2]; 6.39 in experiment [3] (Homo sapiens, LNCaP, 72 h).
The matching figures for `Nc1ccc(-c2nc(N3CCOCC3)c3cnn(C4CCN(Cc5cccnc5)CC4)c3n2)cn1` [Example 210, 5-{4-morpholin-4-yl-1-[1-(pyridin-3-ylmethyl)piperidin-4-yl]-1H-pyrazolo[3,4-d]pyrimidin-6-yl}pyridin-2-amine]: 5.96, 6.97 and 6.70.
Turning to `CCn1nc(C#CCN(C)C)c2c(N3CCOCC3)nc(-c3ccc(NC(=O)NC)cc3)nc21` [Compound 955, 1-(4-{3-[3-(dimethylamino)prop-1-yn-1-yl]-1-ethyl-4-morpholin-4-yl-1Hpyrazolo[3,4-d]pyrimidin-6-yl}phenyl)-3-methylurea], the pIC50 in experiment [1] (Homo sapiens, 72 h) is 6.30; in experiment [2], 7.60; in experiment [3] (Homo sapiens, LNCaP, 72 h), 6.74.
On to `O=C(c1ccc(Cl)nc1)N1CCC(n2ncc3c(N4CCOCC4)nc(-c4cccc(O)c4)nc32)CC1` [Example 23], for which the pIC50 in experiment [1] (Homo sapiens, 72 h) was 6.10; in experiment [2], 7.20; in experiment [3] (Homo sapiens, LNCaP, 72 h), 6.82.
The matching figures for `c1ccc(CN2CCC(n3ncc4c(N5CCOCC5)nc(-c5ccn[nH]5)nc43)CC2)cc1` [Compound 188]: 4.72, 5.52 and 5.15.
In the case of `CNC(=O)Nc1ccc(-c2nc(N3CCOCC3)c3cnn(C4CCN(C(=O)c5cccc(OC)c5)CC4)c3n2)cc1` [Example 364, 1-(4-{1-[1-(3-methoxybenzoyl)piperidin-4-yl]-4-morpholin-4-yl-1H-pyrazolo[3,4-d]pyrimidin-6-yl}phenyl)-3-methylurea], the pIC50 in experiment [1] (Homo sapiens, 72 h) is 6.52; in experiment [2], 7.12; in experiment [3] (Homo sapiens, LNCaP, 72 h) it was 7.46.
The matching figures for `OCCCN1CCC(n2ncc3c(N4CCOCC4)nc(-c4ccc5[nH]ccc5c4)nc32)CC1` [Compound 247, 3-{4-[6-(1H-indol-5-yl)-4-morpholin-4-yl-1H-pyrazolo[3,4-d]pyrimidin-1-yl]piperidin-1-yl}propan-1-ol]: 5.52, 5.14 and 5.60.
As to `CN(C)S(=O)(=O)c1cccc(-c2nc(N3CCOCC3)c3cnn(C4CCN(Cc5ccccc5)CC4)c3n2)c1` [Example 69], the pIC50 is 5.40 in experiment [1] (Homo sapiens, 72 h); 4.98 in experiment [2]; 5.51 in experiment [3] (Homo sapiens, LNCaP, 72 h).
Turning to `CC(C)(C)OC(=O)N1CCC(n2ncc3c(N4CCOCC4)nc(-c4ccc(NC(=O)Nc5cnccn5)cc4)nc32)CC1` [Compound 885, tert-butyl 4-(4-morpholin-4-yl-6-{4-[(pyrazin-2-ylcarbamoyl)amino]phenyl}-1H-pyrazolo[3,4-d]pyrimidin-1-yl)piperidine-1-carboxylate], the pIC50 was 4.62 in experiment [1] (Homo sapiens, 72 h); 6.15 in experiment [2]; 5.14 in experiment [3] (Homo sapiens, LNCaP, 72 h).
The matching figures for `c1ccc(CN2CCC(n3ncc4c(N5CCOCC5)nc(-c5ccc6nonc6c5)nc43)CC2)cc1` [Compound 190]: 5.22, 5.88 and 5.21.
Take `c1ccc(-n2ncc3c(N4CCOCC4)nc(-c4ccc5[nH]ncc5c4)nc32)cc1` [Compound 676, 6-(1H-indazol-5-yl)-4-morpholin-4-yl-1-phenyl-1H-pyrazolo[3,4-d]pyrimidine]: the results for the pIC50 in experiment [1], in experiment [2] and in experiment [3] were less than 4.22, 6.36 and 4.70, respectively.
`CCCCNC(=O)Nc1ccc(-c2nc(N3CCOCC3)c3cnn(C4CCN(Cc5ccccc5)CC4)c3n2)cc1` [Compound 185]: the pIC50 in experiment [1] (Homo sapiens, 72 h) was 5.41; in experiment [2], 6.74; in experiment [3] (Homo sapiens, LNCaP, 72 h) it was 5.92.
The matching figures for `O=C(c1ccc(Cl)cc1)N1CCC(n2ncc3c(N4CCOCC4)nc(-c4cccc(O)c4)nc32)CC1` [Compound 27]: 5.62, 7.39 and 6.26.
The matching figures for `O=C(Nc1cc(F)c(-c2nc(N3CCOCC3)c3cnn(C4CCN(C(=O)c5cccnc5)CC4)c3n2)cc1F)NC1CC1` [Compound 468, 1-cyclopropyl-3-(2,5-difluoro-4-{4-morpholin-4-yl-1-[1-(pyridin-3-ylcarbonyl)piperidin-4-yl]-1H-pyrazolo[3,4-d]pyrimidin-6-yl}phenyl)urea]: 5.66, 5.45 and 6.00.
The matching figures for `CCOC(=O)N1CCC(n2ncc3c(N4CCOCC4)nc(-c4ccc(NC(=O)NCCO)cc4)nc32)CC1` [Compound 818, ethyl 4-[6-(4-{[(2-hydroxyethyl)carbamoyl]amino}phenyl)-4-morpholin-4-yl-1H-pyrazolo[3,4-d]pyrimidin-1-yl]piperidine-1-carboxylate]: 6.60, 6.35 and 6.49.
